Measurements: ChEMBL document CHEMBL1131247, “Substituted naphthofurans as hallucinogenic phenethylamine-ergoline hybrid molecules with unexpected muscarinic antagonist activity” (J Med Chem, 1998)
Calls of active or inactive are those of the source. No cut-off for these calls is given here.

Experiments:
[1] = target: T1, 5-hydroxytryptamine receptor 1A (Rattus norvegicus, UniProt P19327); test: Affinity at [3H]8-OH-DPAT-labeled 5-hydroxytryptamine 1A receptor in rat brain homogenate was determined; type: tissue-based
T1 sequence (P19327 whole entry): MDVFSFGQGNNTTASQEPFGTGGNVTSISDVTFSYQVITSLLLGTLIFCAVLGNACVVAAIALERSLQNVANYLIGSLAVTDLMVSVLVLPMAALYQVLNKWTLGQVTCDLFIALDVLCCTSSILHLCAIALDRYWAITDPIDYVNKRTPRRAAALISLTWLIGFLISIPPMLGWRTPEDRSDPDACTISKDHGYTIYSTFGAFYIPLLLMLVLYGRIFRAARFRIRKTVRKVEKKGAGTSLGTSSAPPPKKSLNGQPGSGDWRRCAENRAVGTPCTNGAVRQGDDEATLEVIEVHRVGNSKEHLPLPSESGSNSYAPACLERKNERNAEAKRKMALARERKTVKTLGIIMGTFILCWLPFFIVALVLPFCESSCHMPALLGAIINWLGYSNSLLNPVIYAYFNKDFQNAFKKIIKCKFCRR

[2] = target: 5-hydroxytryptamine receptor 2A (Rattus norvegicus, UniProt P14842); test: Affinity at [3H]ketanserin-labeled 5-hydroxytryptamine 2A receptor in rat brain homogenate was determined; type: tissue-based
Chain of 5-hydroxytryptamine receptor 2A (Rattus norvegicus, UniProt P14842) (P14842 whole entry): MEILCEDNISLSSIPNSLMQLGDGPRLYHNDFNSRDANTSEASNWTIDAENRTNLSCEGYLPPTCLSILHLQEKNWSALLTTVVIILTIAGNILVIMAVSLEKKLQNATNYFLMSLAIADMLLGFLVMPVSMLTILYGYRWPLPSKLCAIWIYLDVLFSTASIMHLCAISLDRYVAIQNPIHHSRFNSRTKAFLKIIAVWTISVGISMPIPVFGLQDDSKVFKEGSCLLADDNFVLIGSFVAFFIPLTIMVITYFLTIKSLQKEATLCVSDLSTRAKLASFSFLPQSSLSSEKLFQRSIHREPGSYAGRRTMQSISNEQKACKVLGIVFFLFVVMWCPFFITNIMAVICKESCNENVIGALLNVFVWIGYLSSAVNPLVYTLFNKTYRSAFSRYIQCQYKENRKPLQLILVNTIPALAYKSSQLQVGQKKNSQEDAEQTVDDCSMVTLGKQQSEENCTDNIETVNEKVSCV

[3] = target: T2, 5-hydroxytryptamine receptor 2C (Homo sapiens, UniProt P28335); test: Binding ability of compound at cloned human 5-hydroxytryptamine 2C receptor using [125 I]DOI as radioligand
T2 sequence (P28335 whole entry): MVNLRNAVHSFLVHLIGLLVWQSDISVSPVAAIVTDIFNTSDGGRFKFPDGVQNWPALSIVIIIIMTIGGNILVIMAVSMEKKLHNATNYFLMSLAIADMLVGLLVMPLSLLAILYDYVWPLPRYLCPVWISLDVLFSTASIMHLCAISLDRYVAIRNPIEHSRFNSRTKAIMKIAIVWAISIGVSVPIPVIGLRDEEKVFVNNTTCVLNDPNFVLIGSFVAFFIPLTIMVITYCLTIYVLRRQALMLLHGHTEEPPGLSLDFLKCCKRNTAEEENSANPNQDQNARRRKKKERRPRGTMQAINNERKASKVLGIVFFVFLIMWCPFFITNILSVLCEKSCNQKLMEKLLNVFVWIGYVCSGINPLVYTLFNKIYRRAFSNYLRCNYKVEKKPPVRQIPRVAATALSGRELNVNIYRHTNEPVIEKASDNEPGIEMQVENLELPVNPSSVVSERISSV

[4] = species: Rattus norvegicus; test: (§1) Effective dose for LSD-like behavioral effect in rats; Not significant; type: functional, organism-based
[5] = target: T3, 5-hydroxytryptamine receptor 2B (Homo sapiens, UniProt P41595); test: Binding ability of compound at cloned human 5-hydroxytryptamine 2B receptor using [3H]5-HT 2B as radioligand
T3 sequence (P41595 whole entry): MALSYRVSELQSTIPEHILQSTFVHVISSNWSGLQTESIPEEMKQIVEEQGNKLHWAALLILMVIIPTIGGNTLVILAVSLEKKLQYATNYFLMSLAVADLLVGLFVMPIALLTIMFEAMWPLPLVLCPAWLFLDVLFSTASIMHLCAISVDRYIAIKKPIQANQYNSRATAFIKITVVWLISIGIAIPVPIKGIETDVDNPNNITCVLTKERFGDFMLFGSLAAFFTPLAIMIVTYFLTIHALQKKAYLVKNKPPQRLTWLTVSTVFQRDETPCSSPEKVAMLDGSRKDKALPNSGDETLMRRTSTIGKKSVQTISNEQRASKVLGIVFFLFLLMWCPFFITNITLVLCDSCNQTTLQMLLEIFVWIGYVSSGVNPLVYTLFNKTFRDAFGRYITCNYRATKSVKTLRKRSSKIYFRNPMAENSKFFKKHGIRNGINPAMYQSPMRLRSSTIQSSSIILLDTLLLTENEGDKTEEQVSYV

[6] = test system: Rattus norvegicus; test: Percentage of animals failing to emit 50 presses on either lever within the 15-min test period in rat at 0.365 mg/kg (1 uM/kg); type: functional
[7] = test system: Rattus norvegicus; test: Percentage of animals failing to emit 50 presses on either lever within the 15-min test period in rat at 5.84 mg/kg (16 uM/kg); type: functional
[8] = species: Rattus norvegicus; test: as §1; type: functional, organism-based; remark: listed apart in the source
[9] = test system: Rattus norvegicus; test: Percentage of animals failing to emit 50 presses on either lever within the 15-min test period in rat at 0.78 mg/kg (2 umol/kg); type: functional
[10] = test system: Rattus norvegicus; test: Percentage of animals failing to emit 50 presses on either lever within the 15-min test period in rat at 2.92 mg/kg (8 uM/kg); type: functional
[11] = target: T4, 5-hydroxytryptamine receptor 2A (Homo sapiens, UniProt P28223); test: Binding ability of compound at cloned human 5-hydroxytryptamine 2A receptor using [125 I]DOI as radioligand
T4 sequence (P28223 whole entry): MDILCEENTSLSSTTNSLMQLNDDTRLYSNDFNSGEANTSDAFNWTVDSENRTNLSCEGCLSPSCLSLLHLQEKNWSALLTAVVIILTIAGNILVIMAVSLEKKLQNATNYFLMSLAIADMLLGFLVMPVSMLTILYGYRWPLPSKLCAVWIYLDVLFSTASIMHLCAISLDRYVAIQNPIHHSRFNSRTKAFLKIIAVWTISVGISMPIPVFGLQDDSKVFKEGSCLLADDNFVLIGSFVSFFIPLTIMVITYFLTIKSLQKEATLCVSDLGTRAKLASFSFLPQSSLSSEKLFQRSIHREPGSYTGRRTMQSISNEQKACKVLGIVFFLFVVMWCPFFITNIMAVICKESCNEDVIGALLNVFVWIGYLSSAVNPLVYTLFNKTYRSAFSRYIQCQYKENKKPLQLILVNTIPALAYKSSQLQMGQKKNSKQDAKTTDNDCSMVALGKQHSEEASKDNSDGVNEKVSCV

[12] = test system: Rattus norvegicus; test: Percentage of animals failing to emit 50 presses on either lever within the 15-min test period in rat at 1.46 mg/kg (4 uM/kg); type: functional
[13] = species: Rattus norvegicus; test: Percentage of animals emitting 50 presses on the LSD appropriate lever during the test period; type: functional
[14] = species: Rattus norvegicus; test: Effective dose for LSD-like behavioral effect in rats; type: functional
[15] = target: T4, 5-hydroxytryptamine receptor 2A; test: Binding ability of compound at cloned human 5-hydroxytryptamine 2A receptor using [3H]ketanserin as radioligand
[16] = target: T3, 5-hydroxytryptamine receptor 2B; test: Binding ability of compound at cloned human 5-hydroxytryptamine 2B receptor using [3H]rauwolscine as radioligand
[17] = target: T2, 5-hydroxytryptamine receptor 2C; test: Binding ability of compound at cloned human 5-hydroxytryptamine 2C receptor using [3H]- mesulergine as radioligand
[18] = target: T5, Muscarinic acetylcholine receptor M5 (Rattus norvegicus) (UniProt P08911)
T5 sequence (whole entry): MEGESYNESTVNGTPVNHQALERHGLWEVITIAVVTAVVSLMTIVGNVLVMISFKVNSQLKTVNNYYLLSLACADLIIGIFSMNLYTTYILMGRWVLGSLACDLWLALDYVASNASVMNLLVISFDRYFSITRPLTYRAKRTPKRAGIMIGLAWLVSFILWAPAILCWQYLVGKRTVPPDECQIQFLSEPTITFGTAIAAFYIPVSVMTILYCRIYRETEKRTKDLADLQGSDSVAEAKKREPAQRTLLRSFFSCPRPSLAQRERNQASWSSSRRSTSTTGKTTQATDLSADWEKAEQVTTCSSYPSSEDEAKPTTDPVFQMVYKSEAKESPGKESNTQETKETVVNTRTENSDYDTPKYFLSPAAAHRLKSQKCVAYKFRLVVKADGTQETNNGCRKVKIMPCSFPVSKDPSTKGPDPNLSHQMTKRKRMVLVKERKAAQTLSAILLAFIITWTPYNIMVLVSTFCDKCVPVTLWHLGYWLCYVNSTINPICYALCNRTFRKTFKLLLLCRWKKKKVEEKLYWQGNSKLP
Description: Compound was evaluated for the affinity at the cloned radio labelled Muscarinic acetylcholine receptor M5

[19] = target: T6, Muscarinic acetylcholine receptor M1 (Mus musculus) (UniProt P12657)
T6 sequence (whole entry): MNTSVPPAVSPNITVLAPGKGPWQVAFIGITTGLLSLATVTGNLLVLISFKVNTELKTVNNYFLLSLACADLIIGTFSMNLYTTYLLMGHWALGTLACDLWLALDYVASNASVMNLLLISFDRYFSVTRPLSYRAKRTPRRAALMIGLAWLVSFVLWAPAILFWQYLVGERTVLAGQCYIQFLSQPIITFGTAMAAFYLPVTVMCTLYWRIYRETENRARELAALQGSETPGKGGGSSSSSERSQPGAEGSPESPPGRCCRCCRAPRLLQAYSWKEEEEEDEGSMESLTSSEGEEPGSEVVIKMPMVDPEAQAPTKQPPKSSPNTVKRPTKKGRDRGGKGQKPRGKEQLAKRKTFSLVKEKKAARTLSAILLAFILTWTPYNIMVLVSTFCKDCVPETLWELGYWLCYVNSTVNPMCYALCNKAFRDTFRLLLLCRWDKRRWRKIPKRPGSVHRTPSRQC
Description: Compound was evaluated for the affinity at the cloned radio labelled Muscarinic acetylcholine receptor M1

[20] = target: Muscarinic acetylcholine receptor M3 (Rattus norvegicus) (UniProt P08483)
Chain of Muscarinic acetylcholine receptor M3 (Rattus norvegicus) (P08483 whole entry, looked up): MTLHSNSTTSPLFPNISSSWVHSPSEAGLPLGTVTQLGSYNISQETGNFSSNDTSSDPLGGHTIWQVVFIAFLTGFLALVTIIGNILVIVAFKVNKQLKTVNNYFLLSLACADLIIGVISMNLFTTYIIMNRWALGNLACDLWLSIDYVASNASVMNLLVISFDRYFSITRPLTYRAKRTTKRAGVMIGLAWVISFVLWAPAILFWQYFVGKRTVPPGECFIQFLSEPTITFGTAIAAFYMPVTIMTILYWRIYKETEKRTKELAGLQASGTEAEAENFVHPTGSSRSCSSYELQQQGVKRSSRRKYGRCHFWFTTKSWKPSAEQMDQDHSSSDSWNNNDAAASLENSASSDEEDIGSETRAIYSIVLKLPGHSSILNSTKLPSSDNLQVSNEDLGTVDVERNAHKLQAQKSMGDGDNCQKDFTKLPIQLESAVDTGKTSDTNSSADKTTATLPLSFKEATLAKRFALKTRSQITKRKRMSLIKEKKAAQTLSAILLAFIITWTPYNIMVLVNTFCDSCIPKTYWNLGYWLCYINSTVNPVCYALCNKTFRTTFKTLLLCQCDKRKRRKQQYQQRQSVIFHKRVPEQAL
Description: Compound was evaluated for the affinity at the cloned radio labelled Muscarinic acetylcholine receptor M3

[21] = target: T7, Muscarinic acetylcholine receptor M2 (Rattus norvegicus) (UniProt P10980)
T7 sequence (whole entry): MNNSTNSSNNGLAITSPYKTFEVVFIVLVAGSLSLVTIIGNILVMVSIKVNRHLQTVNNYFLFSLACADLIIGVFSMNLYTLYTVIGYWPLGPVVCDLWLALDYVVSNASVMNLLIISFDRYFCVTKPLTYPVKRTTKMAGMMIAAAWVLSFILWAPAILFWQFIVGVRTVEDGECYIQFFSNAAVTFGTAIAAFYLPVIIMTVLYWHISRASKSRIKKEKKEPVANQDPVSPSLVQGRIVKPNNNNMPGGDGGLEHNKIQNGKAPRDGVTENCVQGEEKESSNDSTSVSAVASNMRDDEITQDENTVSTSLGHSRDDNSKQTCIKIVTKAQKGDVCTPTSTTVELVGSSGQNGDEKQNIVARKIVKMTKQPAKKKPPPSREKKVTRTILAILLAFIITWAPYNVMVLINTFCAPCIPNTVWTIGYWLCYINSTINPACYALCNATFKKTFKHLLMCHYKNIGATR
Description: Compound was evaluated for the affinity at the cloned radio labelled Muscarinic acetylcholine receptor M2

[22] = target: T8, Muscarinic acetylcholine receptor M4 (Rattus norvegicus) (UniProt P08485)
T8 sequence (whole entry): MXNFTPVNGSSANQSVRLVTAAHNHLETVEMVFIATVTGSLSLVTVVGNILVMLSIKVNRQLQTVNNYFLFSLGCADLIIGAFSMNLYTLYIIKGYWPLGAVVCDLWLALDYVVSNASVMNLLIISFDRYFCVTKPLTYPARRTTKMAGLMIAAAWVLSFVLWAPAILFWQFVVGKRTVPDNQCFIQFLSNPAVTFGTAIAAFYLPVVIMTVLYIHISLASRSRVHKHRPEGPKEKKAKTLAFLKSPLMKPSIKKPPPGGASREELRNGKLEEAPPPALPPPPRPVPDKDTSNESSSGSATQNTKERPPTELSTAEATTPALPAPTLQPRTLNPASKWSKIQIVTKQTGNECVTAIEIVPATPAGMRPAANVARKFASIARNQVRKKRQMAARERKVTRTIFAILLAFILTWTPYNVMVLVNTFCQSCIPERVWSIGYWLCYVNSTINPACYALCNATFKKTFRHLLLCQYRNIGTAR
Description: Compound was evaluated for the affinity at the cloned radio labelled Muscarinic acetylcholine receptor M4

Compound	Ki [1]	Ki [2]	Ki [3]	Ki [5]	Ki [11]	ED50 [14]	further results
CCCN(CCC)[C@H]1Cc2c(OC)ccc3c2[C@@H](CO3)C1	144000 nM	644 nM	–	–	–	–	–
COc1cc(Br)c2c3c1C[C@H](N)C[C@H]3CO2	–	3880 nM	4190 nM	11200 nM	8500 nM	–	ED50 [4]: inactive; D [6]: 0%; D [7]: 11%; ED50 [8]: inactive; D [9]: 0%; D [10]: 0%; D [12]: 0%; SDL [13]: 27%
COc1cc(C[C@@H](C)N)c(OC)cc1Br	6100 nM	–	–	–	–	1.12 mg/kg	–
C[C@@H](N)Cc1c2c(c(Br)c3c1OCC3)OCC2	4300 nM	18 nM	0.3 nM	1.6 nM	0.48 nM	0.061 mg/kg	Ki [15]: 10.7 nM; Ki [16]: 1.15 nM; Ki [17]: 2.28 nM
COc1ccc2c3c1C[C@H](N(C)C)C[C@@H]3CO2	38000 nM	967 nM	–	–	–	–	K 0.5 [18]: 1100 nM; K 0.5 [19]: 846 nM; K 0.5 [20]: 654 nM; K 0.5 [21]: 953 nM; K 0.5 [22]: 913 nM
